Where a name gives a salt, the structure may show the parent alone.
What follows are molecules tested against recombinant Human Phosphodiesterase B2 (PDE4B2) (Homo sapiens, UniProt Q07343) (assay: Human Phosphodiesterase B2 Radiometric Assay (yttrium silicate SPA beads, [3H]cyclic AMP)). Settings: recombinant human PDE4B2, radiometric SPA assay, 8 nM [3H]cyclic AMP; read-out: PDE4B2 pIC50 (converted).
Sequence of recombinant Human Phosphodiesterase B2 (PDE4B2) (Q07343 1-564 isoform Q07343-2): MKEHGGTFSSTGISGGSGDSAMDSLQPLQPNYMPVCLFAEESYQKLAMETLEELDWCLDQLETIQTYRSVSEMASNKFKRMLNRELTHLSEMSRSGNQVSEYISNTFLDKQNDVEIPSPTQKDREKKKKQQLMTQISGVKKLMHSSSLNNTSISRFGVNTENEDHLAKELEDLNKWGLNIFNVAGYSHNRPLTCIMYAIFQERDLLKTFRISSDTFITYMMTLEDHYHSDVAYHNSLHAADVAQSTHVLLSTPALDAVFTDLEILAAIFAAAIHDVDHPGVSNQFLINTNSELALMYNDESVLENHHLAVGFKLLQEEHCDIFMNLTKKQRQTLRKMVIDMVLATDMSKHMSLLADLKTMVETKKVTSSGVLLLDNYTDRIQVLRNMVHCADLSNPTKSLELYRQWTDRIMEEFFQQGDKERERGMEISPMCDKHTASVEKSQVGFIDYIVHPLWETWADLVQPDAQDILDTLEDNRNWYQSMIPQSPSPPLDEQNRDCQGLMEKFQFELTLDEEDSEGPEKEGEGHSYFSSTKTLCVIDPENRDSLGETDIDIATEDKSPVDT
Assay type: biochemical
Method in brief: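 Read-out is scintillation proximity: yttrium silicate beads (with 18 mM ZnSO4, added to stop the reaction) bind 5′AMP formed from 8 nM [3H]cAMP over 20 min. Beforehand, compound and 0.1 mg/mL enzyme were preincubated 30 min at 30 °C in pH 7.5 HEPES buffer with MgCl2, EGTA and Brij 35; pIC50 values were curve-fitted.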
In the case of O=C(N[C@H]1CC[C@@H](n2c(=O)c3cc(F)cnc3n(-c3cccc(-c4ccc(OCCCN5CCOCC5)cc4)c3)c2=O)CC1)c1cn2cc(F)ccc2n1 [Example 81, 6-fluoro-N-{cis-4-[6-fluoro-1-[4′-(3-morpholin-4-ylpropoxy)biphenyl-3-yl]-2,4-dioxo-1,4-dihydropyrido[2,3-d]pyrimidin-3(2H)-yl]cyclohexyl}imidazo[1,2-a]pyridine-2-carboxamide], the IC50 is reported as 0.00631 nM. For O=C(N[C@H]1CC[C@@H](n2c(=O)c3cc(F)cnc3n(-c3cccc(-c4ccc(CNC5CCNCC5)cc4)c3)c2=O)CC1)c1cn2cc(F)ccc2n1 [Example 268, 6-Fluoro-N-{cis-4-[6-fluoro-2,4-dioxo-1-{4′-[(piperidin-4-ylamino)methyl]biphenyl-3-yl}-1,4-dihydropyrido[2,3-d]pyrimidin-3(2H)-yl]cyclohexyl}imidazo[1,2-a]pyridine-2-carboxamide], the IC50 was 0.0126 nM. Work on C[C@@H](O)CN(C)Cc1cc(O)ccc1-c1cccc(-n2c(=O)n([C@H]3CC[C@@H](NCc4cn5cc(F)ccc5n4)CC3)c(=O)c3cc(F)cnc32)c1 [Example 320, 6-fluoro-3-(cis-4-{[(6-fluoroimidazo[1,2-c]pyridin-2-yl)methyl]amino}cyclohexyl)-1-(4′-hydroxy-2′-{[[(2R)-2-hydroxypropyl](methyl)amino]methyl}biphenyl-3-yl)pyrido[2,3-d]pyrimidine-2,4(1H,3H)-dione] yielded an IC50 of 0.2 nM. O=C(N[C@H]1CC[C@@H](n2c(=O)c3cc(F)cnc3n(-c3cccc(-c4ccccc4CN4CCOCC4)c3)c2=O)CC1)c1ccccc1O [Example 63, N-{cis-4-[6-fluoro-1-[2′-(morpholin-4-ylmethyl)biphenyl-3-yl]-2,4-dioxo-1,4-dihydropyrido[2,3-d]pyrimidin-3(2H)-yl]cyclohexyl}-2-hydroxybenzamide] gave an IC50 of 0.0794 nM. Work on O=c1c2cc(F)cnc2n(-c2cccc(-c3ccc(O)cc3CN3CCOCC3)c2)c(=O)n1[C@H]1CC[C@@H](NCc2cc(F)ccc2F)CC1 [Example 282, 3-{cis-4-[(2,5-difluorobenzyl)amino]cyclohexyl}-6-fluoro-1-[4′-hydroxy-2′-(morpholin-4-ylmethyl)biphenyl-3-yl]pyrido[2,3-d]pyrimidine-2,4(1H,3H)-dione] yielded an IC50 of 0.794 nM. With C[C@H](CO)N(C)Cc1cc(O)ccc1-c1cccc(-n2c(=O)n([C@H]3CC[C@@H](NCc4cn5cc(F)ccc5n4)CC3)c(=O)c3cc(F)cnc32)c1 [Example 319, 6-fluoro-3-(cis-4-{[(6-fluoroimidazo[1,2-a]pyridin-2-yl)methyl]amino}cyclohexyl)-1-(4′-hydroxy-2′-{[[(1R)-2-hydroxy-1-methylethyl](methyl)amino]methyl}biphenyl-3-yl)pyrido[2,3-d]pyrimidine-2,4(1H,3H)-dione] the IC50 was 0.631 nM. With O=C(N[C@H]1CC[C@@H](n2c(=O)c3cc(F)cnc3n(-c3cccc(-c4ccc(O)cc4CN4CCNCC4)c3)c2=O)CC1)c1cn2cc(F)ccc2n1 [Example 72, 6-fluoro-N-{cis-4-[6-fluoro-1-[4′-hydroxy-2′-(piperazin-1-ylmethyl)biphenyl-3-yl]-2,4-dioxo-1,4-dihydropyrido[2,3-d]pyrimidin-3(2H)-yl]cyclohexyl}imidazo[1,2-a]pyridine-2-carboxamide trifluoroacetate salt] the IC50 was 0.0501 nM. O=C(N[C@H]1CC[C@@H](n2c(=O)c3cc(F)cnc3n(-c3cccc(-c4ccc(CN5CCCCC5)cc4)c3)c2=O)CC1)c1cn2c(n1)CCCC2 [Example 119, N-{cis-4-[6-fluoro-2,4-dioxo-1-[4′-(piperidin-1-ylmethyl)biphenyl-3-yl]-1,4-dihydropyrido[2,3-d]pyrimidin-3(2H)-yl]cyclohexyl}-5,6,7,8-tetrahydroimidazo[1,2-a]pyridine-2-carboxamide] was tested, and the IC50 was 0.316 nM. Molecule CN1CCN(Cc2ccc(-c3cccc(-n4c(=O)n([C@H]5CC[C@@H](NC(=O)c6cn7cc(F)ccc7n6)CC5)c(=O)c5cc(F)cnc54)c3)cc2)CC1 [Example 269, 6-Fluoro-N-{cis-4-[6-fluoro-1-{4′-[(4-methylpiperazin-1-yl)methyl]biphenyl-3-yl}-2,4-dioxo-1,4-dihydropyrido[2,3-d]pyrimidin-3(2H)-yl]cyclohexyl}imidazo[1,2-a]pyridine-2-carboxamide] has an IC50 of 0.02 nM. O=C(N[C@H]1CC[C@@H](n2c(=O)c3cc(F)cnc3n(-c3cccc(-c4ccc(CN5CCN(CCO)CC5)cc4)c3)c2=O)CC1)c1cn2c(n1)CCCC2 [Example 120, N-{cis-4-[6-fluoro-1-(4′-{[4-(2-hydroxyethyl)piperazin-1-yl]methyl}biphenyl-3-yl)-2,4-dioxo-1,4-dihydropyrido[2,3-d]pyrimidin-3(2H)-yl]cyclohexyl}-5,6,7,8-tetrahydroimidazo[1,2-a]pyridine-2-carboxamide] showed an IC50 of 0.0316 nM. Molecule CC(C)CCCC(C)n1c(=O)n([C@H]2CC[C@@H](NC(=O)c3cn4cc(F)ccc4n3)CC2)c(=O)c2cc(F)cnc21 (stereo partly drawn) [Example 36, N-{cis-4-[1-(1,5-dimethylhexyl)-6-fluoro-2,4-dioxo-1,4-dihydropyrido[2,3-d]pyrimidin-3(2H)-yl]cyclohexyl}-6-fluoroimidazo[1,2-a]pyridine-2-carboxamide] has an IC50 of 6.31 nM. With N[C@H]1CC[C@@H](n2c(=O)c3cc(F)cnc3n(-c3cccc(C(=O)O)c3)c2=O)CC1 [Example 91, 3-[3-(cis-4-aminocyclohexyl)-6-fluoro-2,4-dioxo-3,4-dihydropyrido[2,3-d]pyrimidin-1(2H)-yl]benzoic acid] the IC50 was 7.94 nM. Molecule O=c1c2cc(F)cnc2n(-c2cccc(-c3ccc(O)cc3CN3CCOCC3)c2)c(=O)n1[C@H]1CC[C@@H](NCc2cn3c(n2)CCCC3)CC1 [Example 252, 6-Fluoro-1-[4′-hydroxy-2′-(morpholin-4-ylmethyl)biphenyl-3-yl]-3-{cis-4-[(5,6,7,8-tetrahydroimidazo[1,2-a]pyridin-2-ylmethyl)amino]cyclohexyl}pyrido[2,3-d]pyrimidine-2,4(1H,3H)-dione] has an IC50 of 0.398 nM. CC(C)N1CCN(Cc2ccc(-c3cccc(-n4c(=O)n([C@H]5CC[C@@H](NC(=O)C6CCCC6)CC5)c(=O)c5cc(F)cnc54)c3)cc2)CC1 [Example 236, N-{cis-4-[6-fluoro-1-{4′-[(4-isopropylpiperazin-1-yl)methyl]biphenyl-3-yl}-2,4-dioxo-1,4-di-hydropyrido[2,3-d]pyrimidin-3(2H)-yl]cyclohexyl}cyclo-pentanecarboxamide] was tested, and the IC50 was 0.126 nM. Work on CSc1cccc(-c2cccc(-n3c(=O)n([C@H]4CC[C@@H](NC(=O)c5cn6cc(F)ccc6n5)CC4)c(=O)c4cc(F)cnc43)c2)c1 [Example 15, 6-fluoro-N-{cis-4-[6-fluoro-1-[3′-(methylthio)biphenyl-3-yl]-2,4-dioxo-1,4-dihydropyrido[2,3-d]pyrimidin-3(2H)-yl]cyclohexyl}imidazo[1,2-a]pyridine-2-carboxamide.] yielded an IC50 of 0.0126 nM. Molecule O=C(N[C@H]1CC[C@@H](n2c(=O)c3cc(F)cnc3n(-c3cccc(-c4ccc(F)cc4O)c3)c2=O)CC1)c1cn2cc(F)ccc2n1 [Example 80, 6-fluoro-N-{cis-4-[6-fluoro-1-(4′-fluoro-2′-hydroxybiphenyl-3-yl)-2,4-dioxo-1,4-dihydropyrido[2,3-d]pyrimidin-3(2H)-yl]cyclohexyl}imidazo[1,2-a]pyridine-2-carboxamide] has an IC50 of 0.0794 nM. CC(=O)N[C@H]1CC[C@@H](n2c(=O)c3cc(F)cnc3n(-c3cccc(-c4ccccc4CN4CCOCC4)c3)c2=O)CC1 [Example 62, N-{cis-4-[6-fluoro-1-[2′-(morpholin-4-ylmethyl)biphenyl-3-yl]-2,4-dioxo-1,4-dihydropyrido[2,3-d]pyrimidin-3(2H)-yl]cyclohexyl}acetamide] gave an IC50 of 0.316 nM. In the case of CN1CCN(CC(=O)N[C@H]2CC[C@@H](n3c(=O)c4cc(F)cnc4n(-c4cccc(-c5ccc(CN6CCCN(C)CC6)cc5)c4)c3=O)CC2)CC1 [Example 291, N-{cis-4-[6-fluoro-1-{4′-[(4-methyl-1,4-diazepan-1-yl)methyl]biphenyl-3-yl}-2,4-dioxo-1,4-dihydropyrido[2,3-d]pyrimidin-3(2H)-yl]cyclohexyl}-2-(4-methylpiperazin-1-yl)acetamide], the IC50 is reported as 0.2 nM. Work on CN(Cc1cc(O)ccc1-c1cccc(-n2c(=O)n([C@H]3CC[C@@H](NCc4cn5cc(F)ccc5n4)CC3)c(=O)c3cc(F)cnc32)c1)C1CC1 [Example 323, 1-(2′-{[cyclopropyl(methyl)amino]methyl}-4′-hydroxybiphenyl-3-yl)-6-fluoro-3-(cis-4-{[(6-fluoroimidazo[1,2-a]pyridin-2-yl)methyl]amino}cyclohexyl)pyrido[2,3-d]pyrimidine-2,4(1H,3H)-dione] yielded an IC50 of 0.251 nM. Molecule C[N+](C)(C)Cc1ccc(-c2cccc(-n3c(=O)n([C@H]4CC[C@@H](NC(=O)c5cn6cc(F)ccc6n5)CC4)c(=O)c4cc(F)cnc43)c2)cc1 [Example 87, {3-[6-fluoro-3-(cis-4-{[(6-fluoroimidazo[1,2-a]pyridin-2-yl)carbonyl]amino}cyclohexyl)-2,4-dioxo-3,4-dihydropyrido[2,3-a]pyrimidin-1(2H)-yl]biphenyl-4-yl]-N,N,N-trimethylmethanaminium iodide] has an IC50 of 0.316 nM. Cc1nc(C(=O)N[C@H]2CC[C@@H](n3c(=O)c4cc(F)cnc4n(-c4cccc(-c5ccc(CN6CCC(N7CCCCC7)CC6)cc5)c4)c3=O)CC2)cs1 [Example 357, N-{cis-4-[1-[4′-(1,4′-bipiperidin-1′-ylmethyl)biphenyl-3-yl]-6-fluoro-2,4-dioxo-1,4-dihydropyrido[2,3-d]pyrimidin-3(2H)-yl]cyclohexyl}-2-methyl-1,3-thiazole-4-carboxamide] gave an IC50 of 0.0316 nM. With CN(C)CC(=O)N[C@H]1CC[C@@H](n2c(=O)c3cc(F)cnc3n(-c3cccc(-c4ccc(CN5CCCN(C)CC5)cc4)c3)c2=O)CC1 [Example 287, N-{cis-4-[6-fluoro-1-{4′-[(4-methyl-1,4-diazepan-1-yl)methyl]biphenyl-3-yl}-2,4-dioxo-1,4-dihydropyrido[2,3-d]pyrimidin-3(2H)-yl]cyclohexyl}-N^2,N^2-dimethylglycinamide] the IC50 was 0.631 nM.

From patent publication US20100204203A1, “Chemical Compounds 637: Pyridopyrimidinediones as PDE4 Inhibitors” (priority 2007, published 2010)
